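Results reflect a 48-hour exposure of cells in 96-well plates to compound at five concentrations. TGI denotes the concentration required for complete inhibition of growth.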
What was measured:
Assay in all cases: NCI anticancer screen, dose series, 48 h
TK-10 renal = test system: TK-10 renal
SF-268 CNS = test system: SF-268 CNS
SNB-78 CNS = test system: SNB-78 CNS
RXF 393 renal = test system: RXF 393 renal
IGROV1 ovarian = test system: IGROV1 ovarian
NCI-H460 lung = test system: NCI-H460 lung
HOP-18 NSCLC = test system: HOP-18 NSCLC
M19-MEL melanoma = test system: M19-MEL melanoma
XF 498 CNS = test system: XF 498 CNS
DMS 273 small cell lung = test system: DMS 273 small cell lung
A549 NSCLC = test system: A549 NSCLC
EKVX NSCLC = test system: EKVX NSCLC
MDA-MB-435 = test system: MDA-MB-435

SMILES	TGI (TK-10 renal)	TGI (SF-268 CNS)	TGI (SNB-78 CNS)	TGI (RXF 393 renal)	TGI (IGROV1 ovarian)	TGI (NCI-H460 lung)	TGI (HOP-18 NSCLC)	TGI (M19-MEL melanoma)	TGI (XF 498 CNS)	TGI (DMS 273 small cell lung)	TGI (A549 NSCLC)	TGI (EKVX NSCLC)	TGI (MDA-MB-435)
Cc1c[n+]2c3ccccc3c3ccccc3c2s1	> 70.9 µM	3.27 µM	> 29.5 µM	0.559 µM	> 100 µM	25.5 µM	> 100 µM	18.3 µM	18 µM	20.1 µM	> 100 µM	> 100 µM	
COc1cc(C2c3cc4c(cc3[C@@H](Nc3cccc(CO)c3)C3COC(=O)[C@H]23)OCO4)cc(OC)c1O (stereo partly drawn)		14.5 µM		6.05 µM	17 µM	1.75 µM	17.4 µM	32.6 µM	5.63 µM	1.76 µM	1.96 µM	19.8 µM	
COc1ccc(C2=NN(c3ccccc3)C[N+](c3ccc(C)cc3)=N2)cc1	> 100 µM	> 100 µM	> 100 µM	57.9 µM	> 100 µM	> 100 µM		> 100 µM	52.9 µM	> 10 µM	> 100 µM	> 100 µM	
CSCC[C@@H]1C(=O)N(C)[C@H](C(C)(C)C)N1C(=O)c1ccccc1		> 100 µM	> 100 µM	> 100 µM	> 100 µM	> 100 µM	> 100 µM	> 100 µM	> 100 µM	> 100 µM	> 100 µM	> 100 µM	
CC(C)C(=O)N1Cc2cc(Cl)cc(Cl)c2OC(=O)c2ccccc21	> 100 µM	41.5 µM	> 100 µM		81 µM	> 100 µM	93.1 µM			> 100 µM	> 100 µM	67.2 µM	
O=C(Nc1ccc(Cl)cc1C(F)(F)F)C(=O)C1CCCS1(=O)=O (stereo not drawn)	> 100 µM	> 100 µM	> 100 µM	> 100 µM	> 10 µM	> 100 µM	> 100 µM	> 100 µM	> 100 µM		> 100 µM	> 100 µM	
CCCCCCCCCCCC(=O)OC[C@H](C[As](=O)(O)O)OC(=O)CCCCCCCCCCC	15.1 µM	> 42.5 µM	9.45 µM	5.68 µM	4.07 µM	16.9 µM	20.3 µM	22 µM	24 µM	15 µM	20.5 µM	25.6 µM	9.5 µM
COC(=O)c1cc(C(=O)OC)c(CC(=O)C(=O)NC2C3CC4CC(C3)CC2C4)nc1CC(=O)C(=O)NC1C2CC3CC(C2)CC1C3 (stereo not drawn)	> 100 µM	> 100 µM	> 100 µM	> 100 µM	> 100 µM	> 100 µM	> 100 µM	> 100 µM		> 100 µM	> 100 µM	> 100 µM	
COc1cc2c(c(OC)c1OC)C(=O)[C@@H]1[C@H]2N1C(=O)NCCCl	> 100 µM	> 100 µM		> 100 µM	> 100 µM	> 100 µM					> 100 µM	> 100 µM	> 100 µM
CCC(C)C(N)C(=O)NC(CC(N)=O)C(=O)NC(CC(C)C)C(=O)NC(CCCCN)C(=O)NC(C)C(=O)NC(CC(C)C)C(=O)NC(C)C(=O)NC(C)C(=O)NC(CC(C)C)C(=O)NC(C)C(=O)NC(CCCCN)C(=O)NC(CCCCN)C(=O)NC(C(=O)NC(CC(C)C)C(N)=O)C(C)CC (stereo not drawn)	27.6 µM	14.7 µM	29.2 µM	21.7 µM	34.4 µM	28.9 µM	13.5 µM	25.9 µM		17 µM	24.9 µM	18.7 µM	
COc1cc(-c2nc3ccc(N4CCN(C)CC4)cc3[nH]2)c(OC)c2[nH]c(COC(C)=O)nc12	> 100 µM	> 100 µM		59.4 µM	> 100 µM	> 100 µM					> 100 µM	> 100 µM	> 100 µM
C=CCNC(=S)N1CC(C)C(=O)Nc2cc(Cl)ccc21 (stereo not drawn)	> 100 µM	> 100 µM	> 100 µM	> 100 µM	> 100 µM	> 100 µM	> 100 µM	> 100 µM		> 100 µM	> 100 µM	> 100 µM	
Cc1cccc(Br)[n+]1[O-]	> 100 µM	> 100 µM		> 100 µM	> 100 µM	> 100 µM					> 100 µM	> 100 µM	> 100 µM
NCCSc1cc(O)c2c(c1N)C(=O)c1ccccc1C2=O	> 100 µM	> 100 µM	> 100 µM	91.1 µM	65.9 µM	> 100 µM		73.6 µM	49.5 µM		> 100 µM	> 100 µM	
COc1ccccc1Cc1ccc(C2C=CC3(CC(=O)C=C3C)C(=O)C2)o1 (stereo not drawn)	> 100 µM	64.9 µM		56.3 µM	> 100 µM	> 100 µM					> 100 µM	> 100 µM	46.8 µM
Cc1[nH]c(=O)[nH]c(=O)c1/C=C/C(=O)O (tested in a mixture with another compound)		> 625 µM	> 625 µM	> 625 µM	> 625 µM	> 625 µM	> 625 µM	> 625 µM	> 625 µM	> 625 µM	> 625 µM	> 625 µM	
COC(=O)/C=C\C(C#N)(C#N)N=Cc1cccc(OC)c1	4.78 µM	33.4 µM		9.62 µM	24 µM	40.8 µM					35.1 µM	23.8 µM	13.5 µM
C=CCN1/C(=C(\C#N)c2nc3ccccc3[nH]2)Sc2c1nc[nH]c2=O	> 100 µM	> 100 µM	> 100 µM	> 100 µM	> 100 µM	> 100 µM		> 100 µM	> 100 µM	> 100 µM	> 100 µM	> 100 µM	
N#Cc1ccc(Cc2ccccn2)cc1Cl	> 100 µM	> 100 µM	> 100 µM	> 100 µM	> 100 µM	> 100 µM	> 100 µM	> 100 µM		> 100 µM	> 100 µM	> 100 µM	
